Broadly, the inhibition is the percentage by which the read-out fell short of the control.

This is an account of results in ChEMBL document CHEMBL2074345, “Expression cloning and characterization of a novel multispecific organic anion transporter” (J Biol Chem, 1997).

Data set [1] has as its target T1, Solute carrier family 22 member 6 (Rattus norvegicus, UniProt O35956).
T1 sequence (O35956 whole entry): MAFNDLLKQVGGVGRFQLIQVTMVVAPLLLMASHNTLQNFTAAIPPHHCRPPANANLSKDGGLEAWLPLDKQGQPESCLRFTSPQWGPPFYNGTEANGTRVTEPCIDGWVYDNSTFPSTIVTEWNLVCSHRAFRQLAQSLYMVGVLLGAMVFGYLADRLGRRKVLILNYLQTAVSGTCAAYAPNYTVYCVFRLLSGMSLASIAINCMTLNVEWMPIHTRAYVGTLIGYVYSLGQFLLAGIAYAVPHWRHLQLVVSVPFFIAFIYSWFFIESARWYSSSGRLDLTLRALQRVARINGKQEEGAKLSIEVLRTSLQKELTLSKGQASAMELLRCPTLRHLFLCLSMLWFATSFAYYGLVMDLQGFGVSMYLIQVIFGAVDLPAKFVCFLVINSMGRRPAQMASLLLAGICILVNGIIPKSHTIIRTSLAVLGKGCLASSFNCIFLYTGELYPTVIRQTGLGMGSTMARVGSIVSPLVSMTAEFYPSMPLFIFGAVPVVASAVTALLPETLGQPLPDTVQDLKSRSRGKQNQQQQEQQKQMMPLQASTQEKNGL
The experiment in a line: TP_TRANSPORTER: uptake in Xenopus laevis oocytes. It counts as functional, cell-based. The note with it: oocyte.

The target of data set [2] is T1, Solute carrier family 22 member 6. The experiment in a line: TP_TRANSPORTER: inhibition of PAH uptake (PAH: 2 uM, Ethacrynic acid; 2000 uM) in Xenopus laevis oocytes. The following applies: probe PAH (2 uM). It counts as functional, cell-based, Oocyte.
Data set [3] shares this target. Description: TP_TRANSPORTER: inhibition of PAH uptake (PAH: 2 uM, Nalidixate; 2000 uM) in Xenopus laevis oocytes. It counts as functional, cell-based, Oocyte. The note with it: probe PAH (2 uM).
Data set [4] has the same target. Description: TP_TRANSPORTER: inhibition of PAH uptake (PAH: 2 uM, Valproic acid; 2000 uM) in Xenopus laevis oocytes. It counts as functional, cell-based, Oocyte. The note with it: probe PAH (2 uM).

Take `CC[N+](CC)(CC)CC` [TETRYLAMMONIUM]: the Activity entry in data set [1] was “is not a substrate [-]”.

`C=C(CC)C(=O)c1ccc(OCC(=O)O)c(Cl)c1Cl` [ETHACRYNIC ACID] had an inhibition at 2000 µM in data set [2] of over 85%.

`O=c1[nH]c(=O)c2[nH]c(=O)[nH]c2[nH]1` [URIC ACID]: in data set [1], the Activity entry was “substrate [+]”.

`CCn1cc(C(=O)O)c(=O)c2ccc(C)nc21` [NALIDIXIC ACID] came in with an inhibition at 2000 µM in data set [3] of over 85%.

In the case of `CCCC(CCC)C(=O)O` [VALPROIC ACID], the inhibition at 2000 µM in data set [4] was over 85%.

As for `O=C(O)CCC(=O)C(=O)O` [ALPHA-KETOGLUTARIC ACID], the Activity result in data set [1] is “substrate [+]”.

Consider `Nc1nc2c(ncn2[C@@H]2O[C@@H]3COP(=O)(O)O[C@H]3[C@H]2O)c(=O)[nH]1`, for which the Activity result in data set [1] was “substrate [+]”.
